Patent publication US7741486B1, “Water-soluble titanium alkoxide material” (Sandia Corporation, priority 2008, dated 2010)

Format: physicochemical
Text: The bidentate nature of the OC6H6N (referred to herein as OPy) group, the steric bulk of the OC6H2(CH2N(CH3)2)3-2,4,6 (referred to herein as TAP) ligand, and the amino functionality of the OC6H2(CH2N(CH3)2)3-2,4,6 ligand combine to effectively limit conventional hydrolysis of the alkoxide while maintaining solubility in aqueous media. Therefore, unlike many other similar compounds, the compound of the present invention is both water soluble and stable in an aqueous solution.
The inhibition of hydrolysis at ligand sites even when the molecule is dispersed in water is attributed to steric constraints imposed by the bidentate pyridine carbinoxide (OPy) and monodentate tri-amino-phenoxide (TAP) groups. It is believed that the amino groups present on the TAP ligand further facilitate water solubilization through H-bonding with the water. The inert character of the molecule to conventional hydrolysis chemistry enables an evaluation of photoexcitation as a means to influence the evolution of intermolecular bond formation.

Structure (SMILES): CN(C)Cc1cc(CN(C)C)c([O][Ti]([O]Cc2ccccn2)([O]Cc2ccccn2)[O]c2c(CN(C)C)cc(CN(C)C)cc2CN(C)C)c(CN(C)C)c1 [(OC6H6N)2Ti(OC6H2(CH2N(CH3)2)3-2,4,6)2]
- stability in aqueous solution (resistance to conventional hydrolysis): water-stable
- water solubility: water-soluble
